Measured values reported in ChEMBL document CHEMBL6120961, “Design, Synthesis, and Biological Evaluation of Covalently Mucoadhesive Derivatives as Nonsystemic Intestine-Targeted TGR5 Agonists” (J Med Chem, 2024).
Each block holds one compound with its values, some of them ahead of it. Activity calls are given as the source filed them. The rule behind the calls is not given here.

Legend:
[1] = target: T1, G-protein coupled bile acid receptor 1 (Homo sapiens, UniProt Q8TDU6); experiment: Agonist activity at human TGR5 expressed in HEK293T cells assessed as cAMP production incubated for 30 mins by HTRF assay; type: functional, cell-based
T1 sequence (Q8TDU6 whole entry): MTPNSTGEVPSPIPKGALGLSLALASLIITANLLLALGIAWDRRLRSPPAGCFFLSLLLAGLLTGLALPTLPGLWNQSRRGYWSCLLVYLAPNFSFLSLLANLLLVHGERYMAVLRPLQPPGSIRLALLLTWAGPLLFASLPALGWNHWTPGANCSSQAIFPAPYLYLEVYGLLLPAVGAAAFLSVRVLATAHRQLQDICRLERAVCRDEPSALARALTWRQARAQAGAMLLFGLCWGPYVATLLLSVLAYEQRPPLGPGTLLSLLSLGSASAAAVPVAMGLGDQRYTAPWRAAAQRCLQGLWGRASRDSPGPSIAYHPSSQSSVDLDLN

[2] = target: T2, G-protein coupled bile acid receptor 1 (Mus musculus, UniProt Q80SS6); experiment: Agonist activity at mouse TGR5 expressed in HEK293T cells assessed as cAMP production incubated for 30 mins by HTRF assay; type: cell-based
T2 sequence (Q80SS6 whole entry): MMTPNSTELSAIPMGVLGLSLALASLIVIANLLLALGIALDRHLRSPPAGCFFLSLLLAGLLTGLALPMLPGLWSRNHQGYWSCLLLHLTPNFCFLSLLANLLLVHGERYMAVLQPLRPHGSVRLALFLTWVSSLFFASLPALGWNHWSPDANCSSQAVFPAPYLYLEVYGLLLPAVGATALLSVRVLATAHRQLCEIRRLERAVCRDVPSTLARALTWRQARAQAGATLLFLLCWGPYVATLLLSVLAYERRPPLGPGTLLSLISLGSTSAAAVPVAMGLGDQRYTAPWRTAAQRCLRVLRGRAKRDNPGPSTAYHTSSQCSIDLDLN

[3] = system: Mus musculus; experiment: (§1) Hypoglycemic activity in overnight fasted C57BL/6 mouse assessed as reduction in blood glucose level at 50 mg/kg, po preadministered with compound for 60 mins followed by first dose of glucose administration for 120 mins and measured after 120 mins of second glucose administration by oral glucose tolerance test; type: functional, organism-based; details: time 5.0 hrs
[4] = system: Mus musculus; experiment: as §1, with “AUC (0 to 120 min)” for “level”, “test relative to control” for “test”; type: functional; parameters: scale not given: the % may be the effect or the level left; details: time 5 hrs
[5] = system: Mus musculus; experiment: as §1, with “AUC (180 to 300 min)” for “level”, “test relative to control” for “test”; type: functional; parameters: scale not given: the % may be the effect or the level left; details: time 5 hrs
[6] = system: Mus musculus; experiment: Hypoglycemic activity in TGR5-/- mouse model assessed as reduction in blood glucose level at 50 mg/kg, po preadministered with compound for 60 mins followed by glucose administration and measured after 120 mins by oral glucose tolerance test; type: functional, organism-based; details: time 180.0 min
[7] = system: Mus musculus; experiment: Insulin sensitizing activity in over-night fasted male C57BL/6J mouse model assessed as reduction in plasma glucose AUC level at 50 mg/kg, po preadministered with compound for 60 mins followed by insulin administration and measured after 120 mins by insulin tolerance test; type: functional, organism-based; details: time 180.0 min
[8] = target: T3, G-protein coupled bile acid receptor 1 (Homo sapiens) (UniProt Q8TDU6); experiment: Agonist activity at TGR5 in human NCI-H716 cells assessed as increase in GLP-1 secretion at 10 uM preincubated with vildagliptin followed by compound addition and measured after 2 hrs by GLP-1(7 to 36) ELISA; type: functional, cell-based; details: filed as agonist
T3 sequence (whole entry): T1 sequence (Q8TDU6 whole entry)

[9] = system: Mus musculus; experiment: In vivo agonist activity at TGR5 in wildtype C57BL/6J mouse assessed as increase in GLP-1 secretion in blood at 50 mg/kg, po preadministered with vildagliptin for 1 hrs followed by compound administration and measured after 4 hrs; type: functional, organism-based
[10] = system: Mus musculus; experiment: Induction of GLP-1 secretion in TGR5-/- mouse model at 50 mg/kg, po preadministered with vildagliptin for 1 hrs followed by compound administration and measured after 4 hrs; type: functional, organism-based
[11] = system: Mus musculus; experiment: Hypoglycemic activity in diet-induced obese mouse model assessed as reduction in blood glucose level at 50 mg/kg, po administered every day and measured after 4 to 8 days; type: functional, organism-based; details: time 4-8 day
[12] = system: Mus musculus; experiment: Hypoglycemic activity in diet-induced obese mouse model assessed as reduction in blood glucose AUC (0 to 12 days) level at 50 mg/kg, po administered every day and measured after 12 days relative to control; type: functional; parameters: scale not given: the % may be the effect or the level left; details: time 12 day
[13] = system: Mus musculus; experiment: Hypoglycemic activity in non-fasted diabetic db/db mouse model assessed as decrease in plasma HbA1c level at 50 mg/kg, IG administered once daily for 28 days by glycosylated hemoglobin (GHb) assay; type: functional, organism-based; details: time 28.0 day
[14] = Toxicity in overnight fasted male C57BL/6J mouse assessed as increase in gallbladder volume at 50 mg/kg, po measured after 6 hrs; type: organism-based; details: in vivo
[15] = Toxicity in overnight fasted male C57BL/6J mouse assessed as increase in bile weight at 50 mg/kg, po measured after 6 hrs; type: organism-based; details: in vivo
[16] = Toxicity in overnight fasted male C57BL/6J mouse assessed as increase in gallbladder volume at 50 mg/kg, iv measured after 2 hrs; type: organism-based; details: in vivo
[17] = Toxicity in overnight fasted male C57BL/6J mouse assessed as increase in bile weight at 50 mg/kg, iv measured after 2 hrs; type: organism-based; details: in vivo
[18] = Acute toxicity in overnight fasted male C57BL/6J mouse model assessed as behavioral abnormalities at 50 to 200 mg/kg, IG administered for 3 days; type: organism-based; details: in vivo, po, 72 h, dose 50-200 mg/kg, time 3 day
[19] = Acute toxicity in overnight fasted male C57BL/6J mouse model assessed as effect on LDH level in blood at 50 mg/kg, IG administered for 3 days; type: organism-based; details: in vivo, po, 72 h, time 3 day
[20] = Acute toxicity in overnight fasted male C57BL/6J mouse model assessed as effect on ALT level in blood at 50 mg/kg, IG administered for 3 days; type: organism-based; details: in vivo, po, 72 h, time 3 day
[21] = Acute toxicity in overnight fasted male C57BL/6J mouse model assessed as effect on AST level in blood at 50 mg/kg, IG administered for 3 days; type: organism-based; details: in vivo, po, 72 h, time 3 day
[22] = Acute toxicity in overnight fasted male C57BL/6J mouse model assessed as effect on ALP level in blood at 50 mg/kg, IG administered for 3 days; type: organism-based; details: in vivo, po, 72 h, time 3 day
[23] = Acute toxicity in overnight fasted male C57BL/6J mouse model assessed as effect on total protein level in blood at 50 mg/kg, IG administered for 3 days; type: organism-based; details: in vivo, po, 72 h, time 3 day
[24] = Acute toxicity in overnight fasted male C57BL/6J mouse model assessed as effect on uric acid level in blood at 50 mg/kg, IG administered for 3 days; type: organism-based; details: in vivo, po, 72 h, time 3 day
[25] = Acute toxicity in overnight fasted male C57BL/6J mouse model assessed as effect on urea level in blood at 50 mg/kg, IG administered for 3 days; type: organism-based; details: in vivo, po, 72 h, time 3 day
[26] = Acute toxicity in overnight fasted male C57BL/6J mouse model assessed as effect on […] level in blood at 50 mg/kg, IG administered for 3 days; type: organism-based; details: in vivo, po, 72 h, time 3 day
[27] = Acute toxicity in overnight fasted male C57BL/6J mouse model assessed as increase in ALT level in blood at 200 mg/kg, IG administered for 3 days; type: organism-based; details: in vivo, po, 72 h, time 3 day
[28] = Acute toxicity in overnight fasted male C57BL/6J mouse model assessed as increase in AST level in blood at 200 mg/kg, IG administered for 3 days; type: organism-based; details: in vivo, po, 72 h, time 3 day
[29] = Acute toxicity in overnight fasted male C57BL/6J mouse model assessed as increase in serum uric acid level at 200 mg/kg, IG administered for 3 days; type: organism-based; details: in vivo, po, 72 h, time 3 day
[30] = Acute toxicity in overnight fasted male C57BL/6J mouse model assessed as histopathological change in liver at 50 to 200 mg/kg, IG administered for 3 days by H and E staining based analysis; type: organism-based; details: in vivo, po, 72 h, dose 50-200 mg/kg, time 3 day
[31] = Apparent permeability across apical to basolateral side in human Caco-2 cells at 2 uM incubated for 2 hrs by LC-MS/MS analysis; type: ADME, cell-based
[32] = Apparent permeability across basolateral to apical side in human Caco-2 cells at 2 uM incubated for 2 hrs by LC-MS/MS analysis; type: ADME, cell-based
[33] = Apparent permeability across apical to basolateral side in human Caco-2 cells assessed as drug recovery at 2 uM incubated for 2 hrs by LC-MS/MS analysis; type: ADME, cell-based; details: read-out: Drug recovery
[34] = Apparent permeability across basolateral to apical side in human Caco-2 cells assessed as drug recovery at 2 uM incubated for 2 hrs by LC-MS/MS analysis; type: ADME, cell-based; details: read-out: Drug recovery
[35] = organism: Homo sapiens; experiment: Binding affinity to mucin (unknown origin) assessed as disappearance of peak at 9.793 retention time incubated for 2 hrs by HPLC analysis
[36] = organism: Rattus norvegicus; experiment: Muco-adhesive activity in rat intestine assessed as disappearance of peak at 9.793 retention time incubated for 2 hrs by HPLC analysis; type: functional
[37] = Efflux ratio of apparent permeability across basolateral to apical over apical to basolateral side in human Caco-2 cells at 10 uM incubated for 2 hrs by LC-MS/MS analysis
[38] = Apparent permeability across apical to basolateral side in human Caco-2 cells at 10 uM incubated for 2 hrs by LC-MS/MS analysis
[39] = Apparent permeability across basolateral to apical side in human Caco-2 cells at 10 uM incubated for 2 hrs by LC-MS/MS analysis
[40] = Apparent permeability across apical to basolateral side in human Caco-2 cells assessed as drug recovery at 10 uM incubated for 2 hrs by LC-MS/MS analysis
[41] = Apparent permeability across basolateral to apical side in human Caco-2 cells assessed as drug recovery at 10 uM incubated for 2 hrs by LC-MS/MS analysis

SMILES: O=C(CCCCCN1C(=O)C=CC1=O)NCCCCCCNC(=O)CCc1cc(Cl)c(Oc2ccncc2C(=O)N2CCN(C3CC3)c3ccccc32)cc1Cl
- EC50 [1]: 166 nM
- EC50 [2]: 138 nM
- Activity [3]: Active
- Activity [4]: 19.5%
- Activity [5]: 15.9%
- Activity [6]: inactive
- Activity [7]: Active
- Activity [8]: Active
- Activity [9]: Active
- Activity [10]: inactive
- Activity [11]: Active
- Activity [12]: 10.4%
- Activity [13]: Active
- Activity [14]: Non-toxic
- Activity [15]: Non-toxic
- Activity [16]: Toxic
- Activity [17]: Toxic
- Activity [18]: Non-toxic
- Activity [19]: Non-toxic
- Activity [20]: Non-toxic
- Activity [21]: Non-toxic
- Activity [22]: Non-toxic
- Activity [23]: Non-toxic
- Activity [24]: Non-toxic
- Activity [25]: Non-toxic
- Activity [26]: Non-toxic
- Activity [27]: Toxic
- Activity [28]: Toxic
- Activity [29]: Toxic
- Activity [30]: Non-toxic
- Papp A→B at 2 h, 2 µM [31]: < 0.48 ×10⁻⁶ cm/s
- Papp B→A at 2 h, 2 µM [32]: < 0.432 ×10⁻⁶ cm/s
- recovery at 2 h, 2 µM [33]: < 1.1%
- recovery at 2 h, 2 µM [34]: < 22.8%
- Activity [35]: Active
- Activity [36]: Active

SMILES: C[C@H]1O[C@@H](O[C@H]2[C@@H](O)C[C@H](O[C@H]3[C@@H](O)C[C@H](O[C@H]4CC[C@@]5(C)[C@H](CC[C@@H]6[C@@H]5C[C@@H](O)[C@]5(C)[C@@H](C7=CC(=O)OC7)CC[C@]65O)C4)O[C@@H]3C)O[C@@H]2C)C[C@H](O)[C@@H]1O [DIGOXIN]
- efflux ratio at 2 h, 10 µM [37]: 535
- Papp A→B at 2 h, 10 µM [38]: 0.024 ×10⁻⁶ cm/s
- Papp B→A at 2 h, 10 µM [39]: 13.1 ×10⁻⁶ cm/s
- recovery at 2 h, 10 µM [40]: 102%
- recovery at 2 h, 10 µM [41]: 103%

SMILES: COCCc1ccc(OCC(O)CNC(C)C)cc1 (configuration not stated) [METOPROLOL]
- Papp A→B at 2 h, 2 µM [31]: 18.8 ×10⁻⁶ cm/s
- recovery at 2 h, 2 µM [33]: 104%

SMILES: O=C(c1cnccc1Oc1cc(Cl)ccc1Cl)N1CCN(C2CC2)c2ccccc21
- Activity [14]: Toxic
- Activity [15]: Toxic

Continued, in another order:

- EC50 [1]: 200 nM
- EC50 [2]: 835 nM
SMILES: O=C(CCCCCN1C(=O)C=CC1=O)NCCCCNC(=O)CCc1cc(Cl)c(Oc2ccncc2C(=O)N2CCN(C3CC3)c3ccccc32)cc1Cl
- Activity [3]: inactive

- recovery at 2 h, 2 µM [33]: 102%
SMILES: CC(C)(C)NCC(O)COc1cccc2c1CC(O)C(O)C2 (configuration not stated) [NADOLOL]

- EC50 [1]: 355 nM
- EC50 [2]: 400 nM
SMILES: O=C(CCCCCN1C(=O)C=CC1=O)NCCCCCCCCNC(=O)CCc1cc(Cl)c(Oc2ccncc2C(=O)N2CCN(C3CC3)c3ccccc32)cc1Cl
- Activity [3]: inactive
